According to patent publication US9290555B2, “Reagents and methods for treating dental disease” (University of Washington Through its Center for …, priority 2011, dated 2016):
Entries after “also recorded” stand apart in the source; their conditions may differ.

Assays:
Binding analysis via QCM = settings: for Kd: binding to HAp, read-out: KD (dissociation constant); for binding affinity to HAp (in words): compared with ADP1, ADP2, ADP4, ADP7
Protocol: Calcium phosphate coated QCM electrodes were purchased commercially. (Q-Sense, Sweden) The diameter of the crystals and electrodes were 8.8 mm and 5.0 mm, respectively. […] A 12 V DC current was applied to the oscillator circuit to drive the crystal, and the frequency was measured with a Hewlett-Packard 53131A frequency counter sampling at 225 Hz (Universal Counter, Agilent Technologies). After the crystal was mounted in the cell, they were cleaned and dried with high-purity nitrogen gas and used immediately. To establish a stable baseline, a sufficient amount of buffer solution was introduced into the cell before adding the peptide. The frequency change of the crystal in pure buffer solution was recorded for 30 to 60 minutes. After this, the desired amount of ADPs was introduced into the cell and the frequency change was recorded continuously.
The dissociation constants (KD) of the peptides were determined. The KD is an equilibrium constant that represents the concentration necessary to achieve 50% surface coverage. […] (FIG. 2a, Table 1)

[1] = Microstructural and crystallographic analysis of the synthesized minerals (SEM, TEM, XRD); settings: for mineral morphology: SEM/TEM of minerals formed in solution with peptide; for crystal phase of the mineral formed (XRD): XRD of minerals formed in solution; for amount of radiating crystalline blade-like particles emanating from the spherulites: compared to weak binders and no peptide control
Protocol: (§1) For the mineralization experiments, mineralization solutions containing 24 mM Ca^2+ and 14.4 mM β-GP and 0.4 mM peptide was prepared in 25 mM Tris-HCl buffer (pH 7.4). A mineralization solution containing no peptide was prepared as the negative control. Mineralization reactions were commenced by adding bacterial AP to the solution at a final concentration of 1.4×10^−6 g/mL. Subsequent mineral formation kinetics was monitored by continuous measuring of absorbance at 820 nm wave length using a Tecan Safire microplate reader (Tecan Trading AG, Switzerland) as well as by periodic assays of calcium ions throughout the reaction. For periodic assays of calcium and phosphate, 10 μL of the reaction solution was collected at 0.25-, 0.5-, 1- and 1.5-hr. The calcium concentration in the solutions was determined using QuantiChrome Calcium Assay Kit (Bioassays, U.S.A.). All mineralization reactions were carried out at 37° C. Samples for electron microscopy analysis were prepared by placing a 10 μL aliquot from the reaction solution onto a carbon coated TEM grid. After 1 min, liquid on the TEM grid was carefully wicked away and the grids were vacuum-dried for 5 min. The dried grids were stored in a desiccated container until analyzed. SEM imaging was performed at 10 kV using a JSM 7000F (JEOL, Japan) SEM in secondary electron imaging mode. TEM imaging and electron diffraction analysis were performed using an EMS 420T TEM (FEI, Inc., USA; formerly Philips, The Netherlands) operated at 120 kV.

[2] = In vitro solution biomineralization, alkaline phosphatase based mineralization model; assay type: biochemical; settings: for mineralization trend (kinetics): 0.4 mM peptide, 24 mM Ca2+, 14.4 mM β-GP, 37° C., initial 90 minutes; for available free Ca2+ consumed: at the end of the 90 minutes
Protocol: An alkaline phosphatase (AP) based mineralization model was used as described before to investigate the mineralization behaviors of the peptides (22) (see Supporting Information for details). […]
as §1

[3] = Ex vivo re-mineralization of tooth root; set-up: species or system human
Protocol: The cementum-root stock blocks were prepared from single rooted, extracted adult teeth collected at the University of Washington Dental School clinics. No individual identifiers were used and the use of such material complied with the Institutional Review Board guidelines. The teeth were kept in 70% ethanol solution at 4° C. until the specimens were prepared. Cylindrical blocks of 4 mm diameter were cut from the acellular cementum, close to the cementoenamel junction using a trephine bur. The teeth were kept immersed in 70% ethanol-phosphate buffered saline (PBS) during the cutting to prevent heat damage due to friction. The cut cylindrical blocks were cleaned of contaminating material using PBS and demineralized with 35% phosphoric acid gel for 10 seconds. The specimens were stored in 70% ethanol-PBS solution at 4° C. until used.
Prior to coating the specimens with the peptide, the previously cut cylindrical blocks were rehydrated and equilibrated for 2 hours in 24 mM Tris-HCl buffer, pH 7.4. The lyophilized ADP was dissolved in 24 mM Tris-HCl buffer, pH 7.4 to a final concentration of 0.4 mM. A 50 μl drop of the ADP solution was dropped on top of the specimens and left on the specimen for 10 minutes at room temperature in a water saturated chamber to prevent evaporation. Control specimens were identically prepared only by dropping 50 μl of buffer alone. At the end of 10 minutes, the samples were rinsed twice with deionized water. Fluorescent microscopy analysis was performed with fluorescein isothiocyanate-labeled ADP (fADP).
Solutions of 9.6 mM CaCl2 and 5.6 mM (PO4)^−3, a mixture of NaH2PO4—H2O and Na2HPO4-7H20, were prepared in 24 mM Tris-HCl buffer, pH 7.4. The peptide coated and non-coated control specimens were placed in 300 μl of Ca^+2 solution and an equal volume of (PO4)^−3 solution was added to achieve a final concentration of 4.8 mM of Ca^+2 and 2.8 mM of (PO4)^−3. The specimens were incubated in the mineralization solution for 2 hours at 37° C. in a water saturated atmosphere, removed from the mineralization solution and rinsed with 24 mM Tris-HCl buffer, pH 7.4. […]

HTLQPHHHLPVV [ADP1]
Kd (Binding analysis via QCM): 1400 nM
mineral morphology [1]: spherulitic particles
crystal phase of the mineral formed (XRD) [1]: none of the other strong binders
amount of radiating crystalline blade-like particles emanating from the spherulites [1]: slightly higher

PAQQPVAPQQPMMP [ADP8]
Kd (Binding analysis via QCM): 3140 nM
binding affinity to HAp (in words) (Binding analysis via QCM): lower
mineral morphology [1]: spherulitic particles

WPATDKTKREEVD [ADP3]
Kd (Binding analysis via QCM): 6400 nM
binding affinity to HAp (in words) (Binding analysis via QCM): lower
mineral morphology [1]: spherulitic particles

PGYINLSYEKSHSQAINTDRTA [ADP5]
Kd (Binding analysis via QCM): 50000 nM
binding affinity to HAp (in words) (Binding analysis via QCM): lower
mineralization trend (kinetics) [2]: fast mineralization trend
available free Ca2+ consumed [2]: more than half
mineral morphology [1]: much smaller spherulites
Ca/P ratio ([3]; EDX spectra of the cementomimetic layer): 1.67
thickness of mineral layer ([3]; SEM and TEM cross-section): 10-15 μm
elemental composition by EDS ([3]; peptide coated samples after 2 hours): substantial Ca and P peaks

LPPLFSMPLSPILPELPLEAWPAT [ADP6]
Kd (Binding analysis via QCM): 6250 nM
binding affinity to HAp (in words) (Binding analysis via QCM): lower
mineral morphology [1]: spherulitic particles

HPPSHTLQPHHHLPVVPAQQPVAPQQPMMPVPGHHSMTPTQH [ADP7]
Kd (Binding analysis via QCM): 1150 nM
mineralization trend (kinetics) [2]: slow mineralization trend
mineral morphology [1]: Needle like nano-crystals
crystal phase of the mineral formed (XRD) [1]: crystalline HAp; also recorded: HA precipitation was only observed in ADP7; also recorded: characteristic peaks belonging to the HAp crystal structure

VPGHHSMTPTQH [ADP2]
Kd (Binding analysis via QCM): 1610 nM
mineral morphology [1]: spherulitic particles
crystal phase of the mineral formed (XRD) [1]: none of the other strong binders
amount of radiating crystalline blade-like particles emanating from the spherulites [1]: slightly higher

HPPSHTLQPHHHLPVV [ADP4]
Kd (Binding analysis via QCM): 1430 nM
mineral morphology [1]: spherulitic particles
crystal phase of the mineral formed (XRD) [1]: none of the other strong binders
amount of radiating crystalline blade-like particles emanating from the spherulites [1]: slightly higher

B1: rM180: recombinant mouse 180 amino acid long amelogenin (protein, UniProt P63277 17-210, looked up)
Amelogenin, X isoform: MPLPPHPGSPGYINLSYEKSHSQAINTDRTALVLTPLKWYQSMIRQPYPSYGYEPMGGWLHHQIIPVLSQQHPPSHTLQPHHHLPVVPAQQPVAPQQPMMPVPGHHSMTPTQHHQPNIPPSAQQPFQQPFQPQAIPPQSHQPMQPQSPLHPMQPLAPQPPLPPLFSMQPLSPILPELPLEAWPATDKTKREEVD
mineralization trend (kinetics) [2]: fast mineralization trend
available free Ca2+ consumed [2]: more than half
mineral morphology [1]: Needle like nano-crystals
crystal phase of the mineral formed (XRD) [1]: crystalline HAp
crystal phase of the mineral formed (XRD) ([1]; listed as amelogenin): characteristic peaks belonging to the HAp crystal structure
